Tested on: Microtox Acute Toxicity Reagent (Vibrio fischerio)
Assay: Microtox Response Test (Microtox Response Index of anionic surfactant)
Format: cell-based
Details: pure anionic surfactant; EC50 for 50% decrease of bioluminescence, 5 minutes
Text: The biological activity/mildness of a pure surfactant can measured directly via a Microtox Response Test hereinafter described in the Analytical Methods section and can be reported as a Microtox Response Index. By “pure surfactant” it is meant a chemical composition consisting essentially of a single surfactant entity, wherein the entity has essentially one chain length, head group and salt counter ion. From a standpoint of high biological activity, preferred anionic surfactants of the antimicrobial cleansing compositions of the present invention have a Microtox Response Index of less that about 150, more preferably less than about 100 and most preferably less than about 50. […]
For surfactant compositions which are mixtures of surfactants rather than pure surfactants (this includes “commercial grade” surfactants which typically comprise mixtures of entities with different chain lengths and potentially have higher levels of impurities), the Microtox Response Index for any individual surfactant component is not a reliable measurement of biological activity or mildness. In the case of mixtures, the Microtox Index of each individual component can be determined and the weighted average used as the Index for the mixture if all the individual components of the mixture are known. […]

Row | Compound | Microtox Index [ppm]
1 | CCCCCCCCCCCCOS(=O)(=O)O.N [ammonium lauryl sulfate] | 1.0
2 | ammonium laureth-3 sulfate | 120

From US6413529B1, “Antimicrobial wipes which provide improved residual benefit versus gram negative bacteria” (The Procter & Gamble Company, priority 1999, dated 2002)
